Test results published in patent publication US20180327367A1, “MACROCYCLIC BROAD SPECTRUM ANTIBIOTICS” (priority 2015, published 2018).
Converted amounts (≈) assume the structure as drawn. Like-named read-outs stand apart in the source and are kept apart here.

Key:
[1] = test system: Methicillin Resistant Staphylococcus aureus strain USA 300, NRS384; experiment: Minimum inhibitory concentration, broth micro-dilution (CLSI), S. aureus; format: cell-based; settings: Staphylococcus aureus, MRSA / NRS 384 / USA300, 22 h, 35° C., 22 hours
Method in brief: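 Colonies grown 20 hours at 35° C were suspended in cation-adjusted Mueller Hinton Broth with 0.002% Tween-80. Cells were then added to 2-fold compound dilutions starting at 4 or 0.5 μg/mL, at OD600 0.0005.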

[2] = test system: Escherichia coli MC4100 harboring the IMP4213 (E. coli IMP); experiment: microbe, parasite or virus in culture; format: cell-based; settings: Escherichia coli, 22 h, read-out: MIC (μg/mL) E. coli IMP, E. coli MC4100 IMP4213, increased outer-membrane permeability; 35° C., 22 hours
Method in brief: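 Broth micro-dilution per CLSI in cation-adjusted Mueller Hinton Broth with 0.002% Tween-80; E. coli MC4100 carries IMP4213, raising outer-membrane permeability. Compounds tested as 2-fold serial dilutions (10 concentrations) from 4 μg/mL (protocol 2) or 0.5 μg/mL (protocol 3); inoculum OD600 0.0005, 35° C for 22 hours.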

[3] = test system: Escherichia coli ATCC 25922; experiment: Minimum inhibitory concentration, broth micro-dilution (CLSI), E. coli; format: cell-based; settings: Escherichia coli, ATCC25922, 22 h, 35° C., 22 hours
[4] = target: T1, SpsB (Staphylococcus aureus signal peptidase) (Staphylococcus aureus, UniProt P0A070); experiment: cell-based; format: biochemical; settings: SpsB IC50, whole-cell S. aureus (USA300 background, overexpressing SpsB) as SpsB source; fluorogenic peptide substrate, kinetic read 30 min
T1 construct: This assay uses a suspension of Staphylococcus aureus cells as a source of SpsB instead of recombinant SpsB protein; endogenous in cells; host or cells: S. aureus, USA300 background, overexpressing SpsB (whole-cell suspension from frozen pellets)
T1 sequence (P0A070 whole entry): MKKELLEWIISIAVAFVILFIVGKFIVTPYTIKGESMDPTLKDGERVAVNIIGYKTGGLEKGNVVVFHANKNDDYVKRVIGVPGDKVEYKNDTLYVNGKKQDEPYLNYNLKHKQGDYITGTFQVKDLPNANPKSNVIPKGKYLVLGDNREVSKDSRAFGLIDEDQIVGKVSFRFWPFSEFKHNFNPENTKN
Method in brief: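 Whole S. aureus cells (USA300, overexpressing SpsB) in PBS with MgCl2, CaCl2 and 0.1% Tween-80 served as enzyme source, mixed with 20 μM stock of (Dabcyl)βAla-KPAKAAE(Edans) substrate before use. Fluorescence (ex 340/em 490 nm) read kinetically over 30 min. IC50 from reaction rate versus 11-point inhibitor concentration.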

[5] = MRSA USA 300 NRS384, read-out: MIC (μg/mL) S. aureus
[6] = E. coli ATCC 25922, read-out: MIC (μg/mL) E. coli
[7] = read-out: MIC (μg/mL) S. aureus, MRSA USA 300 NRS384
[8] = read-out: MIC (μg/mL) E. coli, E. coli ATCC 25922

Structure (SMILES)	MIC [1, 5] [µg/mL]	MIC [2] [µg/mL]	MIC [3, 6] [µg/mL]	IC50 [4] [nM]	MIC [1, 7] [µg/mL]	MIC [3, 8] [µg/mL]
Cc1nc(Oc2ccc(C(C)(C)C)cc2)ncc1C(=O)N[C@@H](CCN)C(=O)N(C)[C@@H]1C(=O)N[C@@H](C)C(=O)N[C@H](C(=O)NCC#N)Cc2ccc(OCCN)c(c2)-c2cc1ccc2OCCN [Compound 305]	0.063 (≈ 0.0695 µM)	0.016 (≈ 0.0177 µM)	1 (≈ 1.1 µM)	0.73		
CCCCc1ccc(Oc2ncc(C(=O)N[C@@H](CCN)C(=O)N(C)[C@@H]3C(=O)N[C@@H](C)C(=O)N[C@H](C(=O)NCC#N)Cc4ccc(OCCN)c(c4)-c4cc3ccc4OCCN)c(C)n2)cc1 [Compound 306]	0.031 (≈ 0.0342 µM)	0.0078 (≈ 0.00861 µM)	1 (≈ 1.1 µM)	0.69		
CCCC#Cc1ccc(C(=O)N[C@@H](CCN)C(=O)N(C)[C@@H]2C(=O)N[C@@H](C)C(=O)N[C@H](C(=O)NCC#N)Cc3ccc(OCCN)c(c3)-c3cc2ccc3OCCN)c(C)c1 [Compound 307]	0.25 (≈ 0.304 µM)	0.031 (≈ 0.0377 µM)	0.88 (≈ 1.07 µM)	3.5		
CCC/C=C\c1ccc(C(=O)N[C@@H](CCN)C(=O)N(C)[C@@H]2C(=O)N[C@@H](C)C(=O)N[C@H](C(=O)NCC#N)Cc3ccc(OCCN)c(c3)-c3cc2ccc3OCCN)c(C)c1 [Compound 308]	0.063 (≈ 0.0765 µM)	0.016 (≈ 0.0194 µM)	1 (≈ 1.21 µM)	0.71		
Cc1cc(C#CC(C)C)ccc1C(=O)N[C@@H](CCN)C(=O)N(C)[C@@H]1C(=O)N[C@@H](C)C(=O)N[C@H](C(=O)NCC#N)Cc2ccc(OCCN)c(c2)-c2cc1ccc2OCCN [Compound 309]	0.19 (≈ 0.231 µM)	0.02 (≈ 0.0243 µM)	1.1 (≈ 1.34 µM)	1		
Cc1cc(C#CC2CCCCC2)ccc1C(=O)N[C@@H](CCN)C(=O)N(C)[C@@H]1C(=O)N[C@@H](C)C(=O)N[C@H](C(=O)NCC#N)Cc2ccc(OCCN)c(c2)-c2cc1ccc2OCCN [Compound 310]	0.047 (≈ 0.0545 µM)	0.0098 (≈ 0.0114 µM)	0.13 (≈ 0.151 µM)	0.99		
C[C@@H]1NC(=O)[C@@H](N(C)C(=O)[C@H](CCN)NC(=O)c2ccc(C#CC3CCCCC3)cc2C(F)F)c2ccc(OCCN)c(c2)-c2cc(ccc2OCCN)C[C@@H](C(=O)NCC#N)NC1=O [Compound 311]		0.012 (≈ 0.0134 µM)		0.64	0.047 (≈ 0.0523 µM)	0.25 (≈ 0.278 µM)
CCCCCCCc1cc(C)c(C(=O)N[C@@H](CCN)C(=O)N(C)[C@@H]2C(=O)N[C@@H](C)C(=O)N[C@H](C(=O)NCC#N)Cc3ccc(OCCN)c(c3)-c3cc2ccc3OCCN)cn1 [Compound 313]	0.031 (≈ 0.0363 µM)	0.0078 (≈ 0.00912 µM)	0.5 (≈ 0.585 µM)	0.68		
CCCCCCCCCCNCCC(=O)N(C)[C@@H]1C(=O)N[C@@H](C)C(=O)N[C@H](C(=O)NCC#N)Cc2ccc(O)c(c2)-c2cc1ccc2OCCN [Compound 316]	0.13 (≈ 0.184 µM)	2 (≈ 2.83 µM)	> 64	0.84		
CCCCCCCCCCNCCC(=O)N(C)[C@@H]1C(=O)N[C@@H](C)C(=O)N[C@H](C(=O)NCC#N)Cc2ccc(OCCN)c(c2)-c2cc1ccc2O [Compound 317]	0.094 (≈ 0.133 µM)	1 (≈ 1.42 µM)	64 (≈ 90.7 µM)	0.87		
C[C@@H]1NC(=O)[C@@H](N(C)C(=O)[C@H](CCCCN)NC(=O)c2ccc(-c3ccc(Cl)cc3)cc2)c2ccc(OCCN)c(c2)-c2cc(ccc2O)C[C@@H](C(=O)N[C@@H](C)C#N)NC1=O [Compound 319]		0.75 (≈ 0.881 µM)		6.3	2 (≈ 2.35 µM)	> 64
CCCCCCCCCCNCCC(=O)N[C@@H](CCCCN)C(=O)N(C)[C@@H]1C(=O)N[C@@H](C)C(=O)N[C@H](C(=O)NCC#N)Cc2ccc(O)c(c2)-c2cc1ccc2OCCN [Compound 320]	0.13 (≈ 0.156 µM)	2 (≈ 2.4 µM)	> 64	0.97		
CCCCc1ccc(-c2ccc(C(=O)N[C@@H](CN)C(=O)N(C)[C@@H]3C(=O)N[C@@H](C)C(=O)N[C@H](C(=O)NCC#N)Cc4ccc(OCCO)c(c4)-c4cc3ccc4OCCN)cc2)cc1 [Compound 321]		0.016 (≈ 0.0186 µM)		1.8	0.38 (≈ 0.441 µM)	1 (≈ 1.16 µM)
CCCCc1ccc(-c2ccc(C(=O)N[C@@H](CN)C(=O)N(C)[C@@H]3C(=O)N[C@@H](C)C(=O)N[C@H](C(=O)NCC#N)Cc4ccc(OCCC)c(c4)-c4cc3ccc4OCCN)cc2)cc1 [Compound 322]	1.5 (≈ 1.75 µM)	0.13 (≈ 0.151 µM)	4 (≈ 4.66 µM)	8.4		
CCCCCCCCCCCCCC(=O)N[C@@H](CCN)C(=O)N(C)[C@@H]1C(=O)N[C@@H](C)C(=O)N[C@H](C(=O)NCC#N)Cc2ccc(OCCC)c(c2)-c2cc1ccc2OCCN [Compound 323]	0.75 (≈ 0.885 µM)	0.094 (≈ 0.111 µM)	1.5 (≈ 1.77 µM)	2.8		
CCCCCCCCCCCCCC(=O)N[C@@H](CCN)C(=O)N(C)[C@@H]1C(=O)N[C@@H](C)C(=O)N[C@H](C(=O)NCC#N)Cc2ccc(OCC)c(c2)-c2cc1ccc2OCCN [Compound 324]	0.25 (≈ 0.3 µM)	0.031 (≈ 0.0372 µM)	1 (≈ 1.2 µM)	0.82		
CCCCCCCCCCCCCC(=O)N[C@@H](CCN)C(=O)N(C)[C@@H]1C(=O)N[C@@H](C)C(=O)N[C@H](C(=O)NCC#N)Cc2ccc(OCCO)c(c2)-c2cc1ccc2OCCN [Compound 325]	0.13 (≈ 0.153 µM)	< 0.0039	0.5 (≈ 0.589 µM)	0.77		
CCCCCCCCCCCCCC(=O)N[C@@H](CCN)C(=O)N(C)[C@@H]1C(=O)N[C@@H](C)C(=O)N[C@H](C(=O)NCC#N)Cc2ccc(OC)c(c2)-c2cc1ccc2OCCN [Compound 326]	0.19 (≈ 0.232 µM)	0.016 (≈ 0.0195 µM)	1 (≈ 1.22 µM)	0.98		
CCCCCCCCCCCCCC(=O)N[C@@H](CCN)C(=O)N(C)[C@@H]1C(=O)N[C@@H](C)C(=O)N[C@H](C(=O)NCC#N)Cc2ccc(OCCN)c(c2)-c2cc1ccc2OCCO [Compound 329]	0.063 (≈ 0.0742 µM)	0.0078 (≈ 0.00919 µM)	0.5 (≈ 0.589 µM)	0.71		
CCCCCCCCCCCCCC(=O)N[C@@H](CCN)C(=O)N(C)[C@@H]1C(=O)N[C@@H](C)C(=O)N[C@H](C(=O)NCC#N)Cc2ccc(OCCN)c(c2)-c2cc1ccc2OCC [Compound 330]	0.25 (≈ 0.3 µM)	0.063 (≈ 0.0756 µM)	1 (≈ 1.2 µM)	1		
CCCCc1ccc(-c2ccc(C(=O)N[C@@H](CCCCN)C(=O)N(C)[C@@H]3C(=O)N[C@@H](C)C(=O)N[C@H](C(=O)NCC#N)Cc4ccc(OCCN)c(c4)-c4cc3ccc4OCCN)cc2)cc1 [Compound 331]		0.023 (≈ 0.0255 µM)		0.34	0.063 (≈ 0.0698 µM)	0.69 (≈ 0.765 µM)
CCCCc1ccc(-c2ccc(C(=O)N[C@@H](CCCCN)C(=O)N(C)[C@@H]3C(=O)N[C@@H](C)C(=O)N[C@H](C(=O)N[C@@H](C)C#N)Cc4ccc(OCCN)c(c4)-c4cc3ccc4OCCN)cc2)cc1 [Compound 332]	0.13 (≈ 0.142 µM)	< 0.063	3 (≈ 3.27 µM)	0.56		
CCCCCCCCCCCCCC(=O)N[C@@H](CCCCN)C(=O)N(C)[C@@H]1C(=O)N[C@@H](C)C(=O)N[C@H](C(=O)N[C@@H](C)C#N)Cc2ccc(OCCN)c(c2)-c2cc1ccc2OCCO [Compound 333]	< 0.063	< 0.063	1 (≈ 1.12 µM)	0.8		
CCCCCCCCCCCCCC(=O)N[C@@H](CCCCN)C(=O)N(C)[C@@H]1C(=O)N[C@@H](C)C(=O)N[C@H](C(=O)NCC#N)Cc2ccc(OCCN)c(c2)-c2cc1ccc2OCCN [Compound 334]	< 0.063	< 0.063	0.5 (≈ 0.571 µM)	1.3		
CCCCCCCCc1ccc(C(=O)N[C@@H](CCCN)C(=O)N(C)[C@@H]2C(=O)N[C@@H](C)C(=O)N[C@H](C(=O)NCC#N)Cc3ccc(OCCN)c(c3)-c3cc2ccc3OCCN)cc1 [Compound 335]	0.031 (≈ 0.0357 µM)	0.016 (≈ 0.0184 µM)	0.25 (≈ 0.288 µM)	0.56		
CCCCCCCCCCCCCC(=O)N[C@@H](CCCN)C(=O)N(C)[C@@H]1C(=O)N[C@@H](C)C(=O)N[C@H](C(=O)NCC#N)Cc2ccc(OCCN)c(c2)-c2cc1ccc2OCCN [Compound 336]	0.063 (≈ 0.0731 µM)	0.023 (≈ 0.0267 µM)	0.25 (≈ 0.29 µM)	< 0.5		
CCCCCCCCCCCCCC(=O)N[C@@H](CCN)C(=O)N(C)[C@@H]1C(=O)N[C@@H](C)C(=O)N[C@H](C(=O)NCC#N)Cc2ccc(OCCN)c(c2)-c2cc1ccc2OCCN [Compound 337]	0.031 (≈ 0.0366 µM)	0.016 (≈ 0.0189 µM)	0.25 (≈ 0.295 µM)	< 0.5		
CCCCc1ccc(-c2ccc(C(=O)N[C@@H](CCN)C(=O)N(C)[C@@H]3C(=O)N[C@@H](C)C(=O)N[C@H](C(=O)NCC#N)Cc4ccc(OCCN)c(c4)-c4cc3ccc4OCCN)cc2)cc1 [Compound 338]		0.023 (≈ 0.0263 µM)		< 0.5	0.063 (≈ 0.0721 µM)	0.19 (≈ 0.217 µM)
